The values that follow come from ChEMBL document CHEMBL1212771, “BEL-2, an extended-spectrum beta-lactamase with increased activity toward expanded-spectrum cephalosporins in Pseudomonas aeruginosa” (Antimicrob Agents Chemother, 2010).

Molecules are shown by their SMILES. Values after ≈ are worked out from the molar mass of the structure shown.

For assay [1], the system named is Pseudomonas aeruginosa. The assay can be described thus: Antimicrobial activity against Pseudomonas aeruginosa 51170 expressing beta-lactamase BEL-1 by solid agar dilution method. The class given is functional. A general note: Agar dilution tests growth on a series of plates holding different concentrations.
Assay [2] relates to Escherichia coli. Description: Antimicrobial activity against Escherichia coli TOP10 expressing recombinant beta-lactamase BEL-1 by solid agar dilution method. The class given is functional.
For assay [3], the system named is Escherichia coli. The assay can be described thus: Antimicrobial activity against Escherichia coli TOP10 expressing recombinant beta-lactamase BEL-2 by solid agar dilution method. Type of assay: functional.
Assay [4] deals with Pseudomonas aeruginosa. The assay can be described thus: Antimicrobial activity against Pseudomonas aeruginosa 531 expressing beta-lactamase BEL-2 by solid agar dilution method. The class given is functional.
Assay [5] deals with Escherichia coli. The assay can be described thus: Antimicrobial activity against Escherichia coli TOP10 by solid agar dilution method. The class given is functional.
Assay [6] has as its system Pseudomonas aeruginosa. Description: Ratio of Km for Pseudomonas aeruginosa 51170 beta-lactamase BEL-1 to Km for Pseudomonas aeruginosa 531 beta-lactamase BEL-2.

Take `C[C@H]1[C@H](NC(=O)/C(=N\OC(C)(C)C(=O)O)c2csc(N)n2)C(=O)N1S(=O)(=O)O` [AZTREONAM]: the MIC in the assay on Pseudomonas aeruginosa [1] turned out to be 16 µg/mL (≈ 36.7 µM); in the assay with Escherichia coli [2], 16 µg/mL; in the assay with Escherichia coli [3] it was 16 µg/mL; with Pseudomonas aeruginosa [4], 64 µg/mL (≈ 147 µM).

Take `CO/N=C(\C(=O)N[C@@H]1C(=O)N2C(C(=O)[O-])=C(C[N+]3(C)CCCC3)CS[C@H]12)c1csc(N)n1`: the MIC against Pseudomonas aeruginosa [1] was found to be 4 µg/mL (≈ 8.32 µM); in the assay on Escherichia coli [2], 0.25 µg/mL; in the assay on Escherichia coli [3] it was 1 µg/mL; with Pseudomonas aeruginosa [4], 16 µg/mL (≈ 33.3 µM).

In the case of `CO/N=C(\C(=O)N[C@@H]1C(=O)N2C(C(=O)O)=C(COC(C)=O)CS[C@H]12)c1csc(N)n1` [CEFOTAXIME], the MIC with Pseudomonas aeruginosa [1] came out at 32 µg/mL (≈ 70.3 µM); in the assay with Escherichia coli [2] it was 4 µg/mL; with Escherichia coli [3], 32 µg/mL; with Escherichia coli [5], 0.12 µg/mL (≈ 0.263 µM); with Pseudomonas aeruginosa [4], 256 µg/mL (≈ 562 µM).

On to `CC(C)(O/N=C(\C(=O)N[C@@H]1C(=O)N2C(C(=O)[O-])=C(C[n+]3ccccc3)CS[C@H]12)c1csc(N)n1)C(=O)O` [CEFTAZIDIME], for which the MIC with Pseudomonas aeruginosa [1] amounted to 32 µg/mL (≈ 58.5 µM); with Escherichia coli [2], 16 µg/mL; in the assay with Escherichia coli [3], 128 µg/mL; with Escherichia coli [5] it was 0.06 µg/mL (≈ 0.11 µM); with Pseudomonas aeruginosa [4], 256 µg/mL (≈ 468 µM). For the same compound, in the assay with Pseudomonas aeruginosa [6], the Ratio is under 3.

Take `CO/N=C(\C(=O)N[C@@H]1C(=O)N2C(C(=O)[O-])=C(C[n+]3cccc4c3CCC4)CS[C@H]12)c1csc(N)n1` [CEFPIROME]: the MIC is 16 µg/mL (≈ 31.1 µM) in the assay with Pseudomonas aeruginosa [1]; 0.25 µg/mL in the assay with Escherichia coli [2]; 0.5 µg/mL in the assay with Escherichia coli [3]; 0.06 µg/mL (≈ 0.117 µM) in the assay on Escherichia coli [5]; 64 µg/mL (≈ 124 µM) with Pseudomonas aeruginosa [4].

Take `CC1(C)S[C@@H]2[C@H](NC(=O)[C@H](C(=O)O)c3ccsc3)C(=O)N2[C@H]1C(=O)O` [TICARCILLIN]: the MIC in the assay on Pseudomonas aeruginosa [1] is over 512 µg/mL; with Escherichia coli [2], over 512 µg/mL; with Escherichia coli [3], over 512 µg/mL; with Escherichia coli [5], 4 µg/mL (≈ 10.4 µM); against Pseudomonas aeruginosa [4] it was over 512 µg/mL.

Regarding `CC(=O)OCC1=C(C(=O)O)N2C(=O)[C@@H](NC(=O)Cc3cccs3)[C@H]2SC1` [CEPHALOTHIN], the MIC was over 512 µg/mL with Pseudomonas aeruginosa [1]; 256 µg/mL in the assay with Escherichia coli [2]; 256 µg/mL with Escherichia coli [3]; 2 µg/mL (≈ 5.04 µM) against Escherichia coli [5]; over 512 µg/mL against Pseudomonas aeruginosa [4].

A word on the MIC: it is the lowest concentration found to suppress growth.
